Values after ≈ are worked out from the molar mass of the structure shown. A value given as a limit tells only on which side of the number the result lay.

Nine compounds from article PMC11110727, “Exploiting thiol-functionalized benzosiloxaboroles for achieving diverse substitution patterns – synthesis, characterization and biological evaluation of promising antibacterial agents” (RSC Medicinal Chemistry, 2024) can be followed below.

Assay [1] relates to E. faecalis ATCC 29212. Put plainly: Antibacterial activity: MIC/MBC determination and disc-diffusion. Type of assay: cell-based. The following applies: Enterococcus faecalis, ATCC29212, E. faecalis ATCC 29212; for MIC: read-out: MIC. In a few lines:
(§1)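 Antimicrobial susceptibility was assessed by agar disc diffusion and MIC assays per EUCAST and CLSI standards. Minimum bactericidal and fungicidal concentrations were established according to CLSI.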
Background: In agar diffusion tests the substance spreads into inoculated agar from a disc or well.

The test system of assay [2] is E. faecium ATCC 6057. The assay is described as above. Type of assay: cell-based. The following applies: Enterococcus faecium, ATCC6057; E. faecium ATCC 6057; read-out: MIC. In a few lines:
as §1

In assay [3] the test system is S. aureus ATCC 43300 MRSA. The assay is described as above. Type of assay: cell-based. The following applies: Staphylococcus aureus, S. aureus ATCC 43300 MRSA; for MBC: read-out: MBC (first MBC where Eagle effect); for MIC: read-out: MIC. In a few lines: as §1
Assay [4] relates to S. epidermidis ATCC 12228. The assay is described as above. Type of assay: cell-based. The following applies: Staphylococcus epidermidis, ATCC12228, S. epidermidis ATCC 12228; for MIC: read-out: MIC. In a few lines: as §1
Assay [5] relates to K. pneumoniae ATCC 13883. Put plainly: Antibacterial activity: MIC/MBC, MIC with PAβN, disc-diffusion. The note with it: K. pneumoniae ATCC 13883; for MIC: Klebsiella pneumoniae, ATCC13883, read-out: MIC. Type of assay: cell-based, Klebsiella pneumoniae. In a few lines: (§2)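 MICs were measured by CLSI broth microdilution in Mueller–Hinton II broth, with or without the efflux-pump inhibitor PAβN (20 μg mL^−1) and with 1 mM MgSO4 present. A reduction of at least 4-fold with PAβN was counted as significant. Disc diffusion followed EUCAST/CLSI, MBC followed CLSI, and compounds were dissolved in DMSO.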

Assay [6] concerns P. mirabilis ATCC 12453. The description is as above. Type of assay: cell-based, Proteus mirabilis. The following applies: P. mirabilis ATCC 12453; for MIC: Proteus mirabilis, ATCC12453, read-out: MIC. In a few lines:
as §2

Assay [7] has as its system S. marcescens ATCC 13880. The assay is described as above. Type of assay: cell-based, Serratia marcescens. The note with it: S. marcescens ATCC 13880; for MIC: Serratia marcescens, ATCC13880, read-out: MIC. In a few lines: as §2
The test system of assay [8] is S. maltophilia ATCC 13637. The assay is described as above. The note with it: S. maltophilia ATCC 13637; for MIC: read-out: MIC. Type of assay: cell-based, Stenotrophomonas maltophilia. In a few lines: as §2
The subject of assay [9] is C. krusei ATCC 6258. Put plainly: Antifungal activity: MIC/MFC, disc-diffusion. Type of assay: cell-based. The following applies: for MIC: Pichia kudriavzevii, ATCC6258, read-out: MIC; for diameter of inhibition zone: C. krusei ATCC 6258, (-) = zone not observed, paper discs 9 mm. In a few lines: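 Compounds in DMSO were tested by disc diffusion and MIC determination following EUCAST/CLSI guidance, with fungicidal concentration (MFC) per CLSI. Strain first grown twice-checked on Sabouraud dextrose agar, 30 °C, 24–48 h.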

The test system of assay [10] is S. cerevisiae ATCC 9763. Put plainly: Antifungal activity: MIC/MFC, disc-diffusion. Type of assay: cell-based, Saccharomyces cerevisiae. The note with it: for MIC: read-out: MIC; for diameter of inhibition zone: (-) = zone not observed, paper discs 9 mm. In a few lines: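 Method: disc diffusion + MIC per EUCAST/CLSI; MBC/MFC per CLSI. Bacteria passaged twice on TSA, yeasts on Sabouraud agar, 24–48 h at 30 °C. Test compounds in DMSO.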

Where [11] appears, read: (-) = zone not observed, paper discs 9 mm.
The mark [12] stands for this setting: PAβN 20 μg mL^−1, MHB + 1 mM MgSO4.
The mark [13] stands for this setting: Stenotrophomonas maltophilia, ATCC13637.
[14] abbreviates: Saccharomyces cerevisiae, ATCC9763.

`C[Si]1(C)OB(O)c2cc(F)c(SC3CC(=O)NC3=O)c(F)c21` (centres unmarked) [Compound 12, 3-((5,7-Difluoro-3-hydroxy-1,1-dimethyl-1,3-dihydrobenzo[c][1,2,5]oxasilaborol-6-yl)thio)pyrrolidine-2,5-dione]: the MIC in assay [1] is 25 µg/mL (≈ 72.8 µM); in assay [2], 12.5 µg/mL (≈ 36.4 µM); in assay [3], 12.5 µg/mL (≈ 36.4 µM); in assay [4], 6.25 µg/mL (≈ 18.2 µM); in [5] it was 400 µg/mL (≈ 1170 µM); in [6], over 400 µg/mL. Besides, the MIC was 200 µg/mL (≈ 583 µM) in [7], 50 µg/mL (≈ 146 µM) in [8] (setting [13]), over 400 µg/mL in [9] and over 400 µg/mL in assay [10] (setting [14]). Also, the MBC came out at 200 µg/mL (≈ 583 µM) in [3], 400 µg/mL (≈ 1170 µM) in assay [4] and 100 µg/mL (≈ 291 µM) in assay [8] (setting [13]). The “diameter of inhibition zone” value in [5] (setting [11]) was determined as 17 mm; in [6] (setting [11]), 14 mm; in assay [7] (setting [11]), 28 mm; in [8] (setting [11]), 13 mm. Besides, the “-fold reduction of MIC in the presence of PAβN” value is 4 -fold in assay [5] (setting [12]), 4 -fold in assay [6] (setting [12]) and 2 -fold in assay [7] (setting [12]).

For `CC(=O)CSc1ccc2c(c1F)[Si](C)(C)OB2O` [Compound 22, 1-((7-Fluoro-3-hydroxy-1,1-dimethyl-1,3-dihydrobenzo[c][1,2,5]oxasilaborol-6-yl)thio)propan-2-one], the figures for the MBC in assay [1], in assay [3] and in assay [4] were 400 µg/mL (≈ 1410 µM), 200 µg/mL (≈ 704 µM) and 12.5 µg/mL (≈ 44 µM), respectively. Further, the MIC in assay [1] is 25 µg/mL (≈ 88 µM); in assay [2] it was 25 µg/mL (≈ 88 µM); in [3] it was 6.25 µg/mL (≈ 22 µM); in [4], 6.25 µg/mL (≈ 22 µM); in assay [5], over 400 µg/mL; in [6], over 400 µg/mL. The MIC was over 400 µg/mL in assay [7], over 400 µg/mL in [8] (setting [13]), 200 µg/mL (≈ 704 µM) in [9] and 400 µg/mL (≈ 1410 µM) in assay [10] (setting [14]). In addition, the “diameter of inhibition zone” value in assay [9] was found to be 12 mm; in assay [10] (S. cerevisiae ATCC 9763), 17 mm.

For the compound `C[Si]1(C)OB(O)c2cc(F)c(S(=O)(=O)Nc3ccc(F)cc3)c(F)c21` [Compound 28, 5,7-Difluoro-N-(4-fluorophenyl)-3-hydroxy-1,1-dimethyl-1,3-dihydrobenzo[c][1,2,5]oxasilaborole-6-sulfonamide], the MIC in assay [1] was 400 µg/mL (≈ 1030 µM); in assay [2], 400 µg/mL (≈ 1030 µM); in assay [3], 100 µg/mL (≈ 258 µM); in [4], 50 µg/mL (≈ 129 µM); in [5], over 400 µg/mL; in assay [6] it was over 400 µg/mL. Further, the MIC in [7], in [8] (setting [13]), in assay [9] and in assay [10] (setting [14]) was over 400 µg/mL each time. The compound also showed an MBC in [4] of 100 µg/mL (≈ 258 µM).

With `C[Si]1(C)OB(O)c2cc(F)c(SC3CC(=O)N(c4ccc(Br)c(C(F)(F)F)c4)C3=O)c(F)c21` (centres unmarked) [Compound 16, 1-(4-Bromo-3-(trifluoromethyl)phenyl)-3-((5,7-difluoro-3-hydroxy-1,1-dimethyl-1,3-dihydrobenzo[c][1,2,5]oxasilaborol-6-yl)thio)pyrrolidine-2,5-dione], the MBC in assay [1] worked out at 200 µg/mL (≈ 353 µM); in assay [3], 100 µg/mL (≈ 177 µM); in [4], 100 µg/mL (≈ 177 µM). For the same compound, the MIC in assay [1] is 25 µg/mL (≈ 44.2 µM); in [2], 50 µg/mL (≈ 88.3 µM); in [3], 50 µg/mL (≈ 88.3 µM); in [4], 50 µg/mL (≈ 88.3 µM); in assay [5], over 200 µg/mL; in assay [6], over 200 µg/mL. Further, the MIC in assay [7] is over 200 µg/mL; in [8] (setting [13]), over 200 µg/mL; in assay [9], 25 µg/mL (≈ 44.2 µM); in [10] (setting [14]), 6.25 µg/mL (≈ 11 µM). For the same compound, the “diameter of inhibition zone” value in [9] is on record as 21 mm; in [10] (S. cerevisiae ATCC 9763), 35 mm. Moreover, the MFC in assay [10] (Saccharomyces cerevisiae, ATCC9763, S. cerevisiae ATCC 9763) was 50 µg/mL (≈ 88.3 µM).

On to `C[Si]1(C)OB(O)c2cc(F)c(S(N)(=O)=O)c(F)c21` [Compound 27, 5,7-Difluoro-3-hydroxy-1,1-dimethyl-1,3-dihydrobenzo[c][1,2,5]oxasilaborole-6-sulfonamide], for which the MIC in [1] was 400 µg/mL (≈ 1360 µM); in assay [2], 400 µg/mL (≈ 1360 µM); in assay [3], over 400 µg/mL; in assay [4] it was over 400 µg/mL; in [5] it was over 400 µg/mL; in assay [6], over 400 µg/mL. The MIC in [7], in assay [8] (setting [13]), in [9] and in [10] (setting [14]) was over 400 µg/mL throughout.

Regarding `C[Si]1(C)OB(O)c2cc(F)c(SCCC(=O)Nc3ncccn3)c(F)c21` [Compound 9, 3-((5,7-Difluoro-3-hydroxy-1,1-dimethyl-1,3-dihydrobenzo[c][1,2,5]oxasilaborol-6-yl)thio)-N-(pyrimidin-2-yl)propanamide], the MIC in assay [1] is 200 µg/mL (≈ 506 µM); in assay [2], 200 µg/mL (≈ 506 µM); in [3] it was 50 µg/mL (≈ 126 µM); in assay [4], 50 µg/mL (≈ 126 µM); in assay [5] it was over 400 µg/mL; in [6] it was over 400 µg/mL. Further, the MIC in assay [7], in assay [8] (setting [13]), in assay [9] and in assay [10] (setting [14]) was over 400 µg/mL in each case. Moreover, the MBC in assay [3] and in assay [4] was 400 µg/mL (≈ 1010 µM) in each case.

As to `C[Si]1(C)OB(O)c2cc(F)c(S(=O)(=O)Cl)c(F)c21` [Compound 26, 5,7-Difluoro-3-hydroxy-1,1-dimethyl-1,3-dihydrobenzo[c][1,2,5]oxasilaborole-6-sulfonyl chloride], the MIC in assay [1] was 200 µg/mL; in assay [2], 100 µg/mL; in assay [3] it was 200 µg/mL; in [4], 200 µg/mL; in assay [5], over 400 µg/mL; in [6], over 400 µg/mL. Moreover, the MIC in assay [7], in assay [8] (setting [13]), in assay [9] and in assay [10] (setting [14]) was over 400 µg/mL in each case.

Turning to `C[Si]1(C)OB(O)c2cc(F)c(SCCC(=O)OCCCCCC[n+]3ccccc3)c(F)c21` [Compound 18, 1-(6-((3-((5,7-difluoro-3-hydroxy-1,1-dimethyl-1,3-dihydrobenzo[c][1,2,5]oxasilaborol-6-yl)thio)propanoyl)oxy)hexyl)pyridin-1-ium trifluoromethanesulfonate], the MIC is 200 µg/mL in assay [1]; 100 µg/mL in [2]; 50 µg/mL in assay [3]; 50 µg/mL in assay [4]; over 400 µg/mL in [5]; over 400 µg/mL in [6]. For the same compound, the MIC in [7], in assay [8] (setting [13]), in assay [9] and in [10] (setting [14]) was over 400 µg/mL each time. Besides, the MBC in [3] and in assay [4] was 200 µg/mL throughout.

On to `C[Si]1(C)OB(O)c2cc(F)c(SCCC(=O)ON3C(=O)CCC3=O)c(F)c21` [Compound 5, 2,5-Dioxopyrrolidin-1-yl 3-((5,7-difluoro-3-hydroxy-1,1-dimethyl-1,3-dihydrobenzo-[c][1,2,5]oxasilaborol-6-yl)thio)propanoate], for which the MIC in [1] was 400 µg/mL (≈ 963 µM); in assay [2], 400 µg/mL (≈ 963 µM); in assay [3], 400 µg/mL (≈ 963 µM); in assay [4], 400 µg/mL (≈ 963 µM); in [5], over 400 µg/mL; in assay [6], over 400 µg/mL. For the same compound, the MIC in [7], in assay [8] (setting [13]), in [9] and in assay [10] (setting [14]) was over 400 µg/mL throughout.

Broadly, the MIC is the lowest concentration that inhibits growth of the organism. By MBC is commonly meant the lowest tested concentration that kills the bacteria rather than only halting them. As a reminder, the MFC is the lowest tested concentration that kills the fungus rather than only halting it.
